The supplement of paper PMC13380429

What was measured:
Settings in all cases: 72 h
Caco-2 [1] = assay: cell viability relative to DMSO; higher = less toxic
Calu-3 [2] = assay: as above
U2OS [3] = assay: as above
Vero E6 [4] = assay: as above
Caco-2 [5] = assay: relative viability EC50 (midpoint between 100% and the lowest measured viability); higher = less toxic
Calu-3 [6] = assay: as above
U2OS [7] = assay: as above
Vero E6 [8] = assay: as above
Caco-2 [9] = assay: drug sensitivity score (DSS) for viability; higher = more toxic; extreme values may be limits of the assay
Calu-3 [10] = assay: as above
U2OS [11] = assay: as above
Vero E6 [12] = assay: as above
HepG2 [13] = assay: cell viability relative to DMSO; higher = less toxic
HepG2 [14] = assay: relative viability EC50 (midpoint between 100% and the lowest measured viability); higher = less toxic
HepG2 [15] = assay: drug sensitivity score (DSS) for viability; higher = more toxic; extreme values may be limits of the assay

Compound	cell viability (Caco-2 [1]; 1 nM)	cell viability (Caco-2 [1]; 10 nM)	cell viability (Caco-2 [1]; 100 nM)	cell viability (Caco-2 [1]; 1000 nM)	cell viability (Caco-2 [1]; 10000 nM)	cell viability (Calu-3 [2]; 1 nM)	cell viability (Calu-3 [2]; 10 nM)	cell viability (Calu-3 [2]; 100 nM)	cell viability (Calu-3 [2]; 1000 nM)	cell viability (Calu-3 [2]; 10000 nM)	cell viability (U2OS [3]; 1 nM)	cell viability (U2OS [3]; 10 nM)	cell viability (U2OS [3]; 100 nM)	cell viability (U2OS [3]; 1000 nM)	cell viability (U2OS [3]; 10000 nM)	cell viability (Vero E6 [4]; 1 nM)	cell viability (Vero E6 [4]; 10 nM)	cell viability (Vero E6 [4]; 100 nM)	cell viability (Vero E6 [4]; 1000 nM)	cell viability (Vero E6 [4]; 10000 nM)	relative viability EC50 (Caco-2 [5])	relative viability EC50 (Calu-3 [6])	relative viability EC50 (U2OS [7])	relative viability EC50 (Vero E6 [8])	drug sensitivity score (Caco-2 [9])	drug sensitivity score (Calu-3 [10])	drug sensitivity score (U2OS [11])	drug sensitivity score (Vero E6 [12])	cell viability (HepG2 [13]; 1 nM)	cell viability (HepG2 [13]; 10 nM)	cell viability (HepG2 [13]; 100 nM)	cell viability (HepG2 [13]; 1000 nM)	cell viability (HepG2 [13]; 10000 nM)	relative viability EC50 (HepG2 [14])	drug sensitivity score (HepG2 [15])
COc1cc(N)c(Cl)cc1C(=O)OCCCN1CCCCC1	116%	108%	104%	98.3%	107%	106%	102%	93.5%	114%	104%	101%	94.9%	98.1%	104%	102%	106%	104%	107%	104%	99.7%	> 10 µM	> 10 µM	> 10 µM	> 10 µM	0	0	0	0	–	–	–	–	–	–	–
Cc1ccc(C(=O)Nc2ccc(Oc3cc4cnn(C)c4cc3-c3cn[nH]c3)c(F)c2)c(=O)n1-c1ccc(F)cc1	98%	94.9%	102%	99.3%	53.8%	92%	91.9%	101%	70.7%	65.3%	101%	95.5%	98.8%	96.9%	69.9%	103%	99.6%	96.7%	92.1%	68.1%	–	–	–	–	2.5	5.1	1.8	2.6	102%	110%	97.4%	75.5%	15.6%	1.43 µM	8.3
O=[N+]([O-])c1cc([N+](=O)[O-])c(/C=C/c2ccc(Cl)c(Cl)c2)cc1/C=C/c1ccc(Cl)c(Cl)c1	91.4%	97.2%	89%	102%	86.3%	100%	98.5%	87.2%	97.6%	95.9%	68.7%	102%	94.8%	110%	94.1%	103%	105%	101%	102%	97.3%	> 10 µM	> 10 µM	> 10 µM	> 10 µM	0.1	0	0	0	–	–	–	–	–	–	–
CCOC(=O)c1cc(C#N)c(N2CCC(C(=O)NS(=O)(=O)Cc3ccccc3)CC2)nc1C [AZD1283]	98.4%	94.3%	101%	95.5%	97%	96.2%	104%	112%	97.2%	104%	95.7%	100%	105%	91.2%	101%	103%	106%	100%	104%	99.5%	> 10 µM	> 10 µM	> 10 µM	> 10 µM	0	0	0	0	–	–	–	–	–	–	–
O=C(Nc1cccc(Nc2ncc(Br)c(NCCc3cnc[nH]3)n2)c1)N1CCCC1 [BX-912]	103%	93.4%	102%	94.6%	101%	108%	95.4%	104%	102%	91.2%	102%	93.2%	97.5%	98.3%	55.9%	97.7%	93.5%	94.4%	95.8%	91.5%	> 10 µM	> 10 µM	–	> 10 µM	0	0	2.5	0	103%	91.8%	103%	82.3%	55.8%	–	4.7
CC(C)CNc1nc(-c2cccc3ncccc23)cn2c(-c3ccc(C(=O)NC4CC4)cc3)cnc12 [Mps-BAY-2a]	93.1%	82.9%	93.1%	79.4%	79.9%	107%	98.5%	104%	103%	93%	101%	97.6%	103%	99.1%	70.6%	95.7%	94.5%	90.1%	71.1%	62.2%	> 10 µM	> 10 µM	–	–	3.8	0	1.4	5.9	87.9%	100%	86%	57.4%	47.6%	0.255 µM	9.3
CCn1c(=O)n([C@H]2CCCN(c3nccc(-c4cc5ccccc5o4)n3)C2)c2ccccc21 [TC-F-2]	95.6%	91.4%	85.1%	92%	84.9%	98.8%	99.6%	114%	104%	98.4%	95.1%	101%	96.4%	98.8%	96.5%	103%	99.5%	96.1%	96.6%	102%	> 10 µM	> 10 µM	> 10 µM	> 10 µM	1.4	0	0	0	96%	103%	99.2%	90.7%	56.9%	–	3.7
COC(=O)C1=C(C)NC(C)=C(C(=O)O[C@H]2CCN(Cc3ccccc3)C2)[C@H]1c1cccc([N+](=O)[O-])c1 [barnidipine]	108%	92.8%	102%	105%	73.1%	100%	99.4%	99.8%	95.9%	82.4%	98.6%	103%	97.5%	98.2%	88.8%	87.7%	88.6%	105%	106%	87.7%	–	> 10 µM	> 10 µM	> 10 µM	0.8	0.9	0.1	0	105%	105%	85.1%	95.6%	73.8%	–	1.4
C[C@@]12CCc3occc3[C@H]1CC[C@@]13C[C@@H](CC[C@H]12)[C@@](O)(CO)C3 [cafestol]	119%	100%	104%	103%	79.6%	104%	104%	107%	112%	98.2%	101%	103%	94.2%	98.2%	94.4%	98.7%	97.7%	102%	98%	104%	> 10 µM	> 10 µM	> 10 µM	> 10 µM	0.5	0	0	0	83.8%	96.4%	78.4%	104%	69.3%	–	1.1
O=C(O)CCCCN(CCc1ccccc1OCc1ccc(CCc2ccccc2)cc1)Cc1ccc(C(=O)O)cc1 [cinaciguat]	110%	110%	104%	86%	104%	–	–	–	–	–	–	–	–	–	–	–	–	–	–	–	> 10 µM	–	–	–	0	–	–	–	106%	110%	98.9%	109%	105%	> 10 µM	0
O=C(c1ccc(OCCCc2c[nH]cn2)cc1)C1CC1 [ciproxifan]	101%	97.1%	91.8%	94.2%	88.4%	93.4%	101%	99.9%	88.2%	93.1%	96.1%	105%	96.8%	95.8%	97.5%	101%	102%	101%	101%	94.2%	> 10 µM	> 10 µM	> 10 µM	> 10 µM	0	0.5	0	0	106%	107%	99.8%	74.3%	88.6%	–	4.1
CCCCCCC[N+](CC)(CC)CCCCc1ccc(Cl)cc1 [clofilium]	114%	106%	101%	108%	54.4%	83.9%	106%	91.8%	93.6%	87.7%	95.7%	95.6%	97.7%	93%	92.2%	89%	102%	95.2%	104%	116%	–	> 10 µM	> 10 µM	> 10 µM	1.9	0	0	0	94.1%	124%	135%	122%	72.5%	–	0.6
Nc1ccn([C@@H]2O[C@H](CO)[C@@H](O)[C@@H]2O)c(=O)n1 [cytarabine]	106%	97%	90.7%	85.9%	80.6%	99.6%	93.8%	91.9%	88.6%	70.9%	103%	94.3%	96.3%	96.9%	72.8%	95.8%	96.5%	93.5%	95.1%	62.1%	> 10 µM	–	–	–	2.1	2.4	1.6	2.7	95.2%	100%	66.4%	42.1%	38.7%	0.09 µM	15.2
CNC(=O)c1ccc(Nc2ncc(C(F)(F)F)c(NCc3nccnc3N(C)S(C)(=O)=O)n2)cc1 [defactinib]	95.4%	101%	90.1%	100%	89.9%	97.5%	86.2%	106%	88.1%	95.6%	98.2%	100%	93.8%	96.5%	75%	106%	99.8%	101%	84.2%	76%	> 10 µM	> 10 µM	> 10 µM	> 10 µM	0	0	1.5	2.6	100%	95.2%	107%	81.4%	68.1%	–	3.6
COc1cc(C(=O)OCCCN2CCCN(CCCOC(=O)c3cc(OC)c(OC)c(OC)c3)CC2)cc(OC)c1OC [dilazep]	91.6%	98.3%	97.1%	97.1%	73.6%	112%	102%	93.9%	103%	88.1%	98.9%	101%	99.6%	103%	84.6%	98.5%	97.3%	100%	88.6%	79.1%	–	> 10 µM	> 10 µM	> 10 µM	1.5	0	0.2	1.8	104%	89.5%	102%	82.4%	70.4%	–	3.3
